The text below walks through data of patent US8722714B2, “Oxazolidine derivatives as NMDA antagonists” (The Honk Kong University of Science and Technology, priority 2008, dated 2014).

The subject of one test is ERK. As to the kind of experiment: Western blot detection of ERK phosphorylation in rat cortical neurons. It counts as cell-based. The note with it: 500 μM; rat cortical neurons 11 DIV; vs DMSO control. The procedure:
Embryonic day 18 Sprague Dawley rat pups were decapitated, their brains removed, and the cortices were isolated. Tissues were triturated and isolated neurons were plated onto 60 mm plate and cultured with Neurobasal medium supplemented with 2% B27 (Invitrogen). Experiments were performed after 10-12 days in vitro (DIV). Cultured cells were stimulated with a test compound or vehicle control (DMSO) for different time intervals and then lysed with RIPA buffer including protease inhibitors. Cell lysates were stored at −80° C. before use. Before being loaded, the lysates were heated to 95° C. for 10 min, vortexed and centrifuged for 7 min at 15,000×g. Supernatants were electrophoresed on 10% SDS-polyacrylamide gel and transblotted to nitrocellulose membrane. The membranes were washed with 5% (w/v) powdered milk dissolved in PBS with 0.1% Triton X-100, followed by incubation at 4° C. overnight with rabbit polyclonal against phospho-ERK or phosphor-AKT (1:1000, Cell Signaling Technology). Next, the membranes were washed and incubated with horseradish peroxidase (HRP)-conjugated secondary antibodies. The signal was visualized using ECL Western Blotting Kit. Blots were stripped and probed for total ERK or AKT expression. […]
Western blot analysis was performed on the total cell lysates. Antibodies against phospho-ERK1/2 and phospho-AKT were used and detected with HRP conjugated secondary antibodies. […]
(In general: In western blotting, separated proteins are transferred to a membrane and probed.)

For a further test, the system named is mice. As to the kind of experiment: Forced Swim Test (FST). To be noted: 100 mg/kg p.o., 7 times, last 4 min of 6-min swim. In kind it is in vivo. The text has this:
Outbred male I.C.R. mice of ˜3-4 weeks old weighing 20-22 g were used. The mice had free access to food (rodent chow #2053, 5g/mouse/day) and water. The cage floors were covered with wood shavings and the mice were handled once per week while the cages were cleaned. […] Number of mice per group was ˜10-15. To facilitate adaptation to novel surroundings, mice were transported to the testing area from the core animal facility at least one week prior to testing. All experimental sessions were conducted between 0900 and 1200 hours. Briefly, mice were put into a pyrex cylinder of 30 cm in height and 11.5 cm in diameter with water (10 cm) to a level that they would not be able to touch the bottom. Mice were put into the cylinder for twice, first day 15 min and second day 6 min. The duration of immobility (within the last 4 min in the 6-min time frame) of mice in FST were recorded using Etho-Vision® XT Mobility (Noldus software). The parameters to score the behavior of animals in the FST were fine-tuned by visual inspection. […]
The Forced Swim Test (FST) is a popular animal model for assessing depression. […] The time that the test animal spends in an immobile state in the second trial is measured (immobility time). […]
The task was then performed twice and the duration of time the mice spent in an immobile state during the second trial was measured. […]

As to `CC[C@H]1N[C@@H](CC(C)C)C(CC)(CC)O1` [LC-02], in the test with ERK, the “phosphorylation of ERK” value was “induced phosphorylation of ERK after a 15-min treatment period and persisted to 60 min”.
Turning to `CCCC1(CCC)O[C@@H](CC)N[C@H]1CC(C)C` [LC-06], the “duration of immobility (immobility time)” value in the test on mice was “Reduces the Duration of Immobility”.
